{"source": "patent US6197746A", "about": "“Method of using secretin for treating autism” (priority 1999, dated 2001)", "key": {"pancreas": {"system": "pancreas", "experiment": "Pancreatic juice release after intravenous secretin during upper gastrointestinal endoscopy (Example 1)", "type": "in vivo, human", "conditions": "immediately after 2 CU/kg i.v. over one minute; usual rate 1-2 ml/min", "method": "(§1) When the patient was […], the secretin was administered by way of an infusion as part of an upper gastrointestinal endoscopy. The secretin was used in this diagnostic procedure at the request of the patient's parents, one of which is an inventor of the present invention. The secretin used in this procedure is known as Secretin-Ferring available from Ferring Laboratories, Inc., Suffern, N.Y. (See Appendix A). The secretin was dissolved in a […] solution of sodium chloride and administered in a dosage of 2 clinical units (CU) per kilogram (kg) body weight by intravenous injection over one minute. (I.E. 30 IU IV for approximately 15 kilograms of body weight.)\n(§2) The diagnostic tests performed on the patient during this procedure also indicated gastric inflammation. […] The following Table I summarizes the improvements observed in the patient within 3 weeks after the infusion of secretin."}, "[1]": {"system": "serotonin levels; rubella titers", "experiment": "Blood tests after secretin infusion (Example 1)", "type": "in vivo, human", "method": "(§3) Biomedical changes were also measured in the patient."}, "abnormal opioid peptides": {"system": "abnormal opioid peptides", "conditions": "after the secretin infusion; autistic children that responded to casein free and gluten free diet; cited from earlier work"}, "symptoms of autism [2]": {"system": "symptoms of autism", "experiment": "Symptoms and behaviour of a child with symptoms of autism after secretin infusion (Example 1, Table I)", "type": "in vivo, human", "method": "The present invention will be better understood from the following examples which are given by way of illustration and not by way of limitation. The patient, the same in both examples, is a child with symptoms of autism.\nas §1, §2"}, "symptoms of autism [3]": {"system": "symptoms of autism", "experiment": "Daily transdermal secretin with DMSO in a child with symptoms of autism (Example 2)", "type": "in vivo, human", "method": "At the time of this treatment, the patient was […]. Secretin was administered transdermally using pharmaceutical grade dimethyl sulfoxide (DMSO) (generally 99.9% pure) available from Clinic Service Co., Box 2512, Hemet Calif. 92543. The secretin (Secretin-Ferring) was administered daily in a dosage of about 75 CU over a five day period (i.e., about 15 CU daily) For each treatment, about 4 drops of DMSO were placed onto the skin of the patient, about 15 CU of the crystalline secretin was placed onto the DMSO, and the composition was rubbed into the skin."}, "brain perfusion": {"system": "brain perfusion", "experiment": "SPECT scan of the brain after secretin infusion (Example 1)", "type": "in vivo, human", "method": "Further, the patient's secretin cells prior to receiving treatment, measured at a level of 9, are far below the normal limit in the range of 20-70.\nas §3"}, "[4]": {"conditions": "within weeks after the treatment"}}, "note": "Entries after “also recorded” stand apart in the source; their conditions may differ."}
{"substance": "secretin", "values": [{"measurement": "amount of pancreatic juice being released", "setting": "pancreas", "value": "approximately 10 ml/min"}, {"measurement": "measles, mumps and rubella antibodies", "setting": "[1]; after the secretin administration in Example 1", "value": "reduction"}, {"measurement": "rubella titers", "setting": "[1]; after the treatment, dropped from 5.8", "value": 2.3}, {"measurement": "serotonin levels", "setting": "[1]; blood, after the treatment", "value": "rise and increase"}, {"measurement": "abnormal opioid peptides", "setting": "abnormal opioid peptides", "value": "disappeared"}, {"measurement": "rate of the patient's progress", "setting": "symptoms of autism [2]; at about 5 weeks after first infusion", "value": "appeared to decrease"}, {"measurement": "results of second and third infusions", "setting": "symptoms of autism [2]; second about 9 months after first, third about three months after second", "value": "achieved the same results"}, {"measurement": "limited diet preferences", "setting": "symptoms of autism [2]; within 3 weeks after infusion", "value": "No Change"}, {"measurement": "water consumption", "setting": "symptoms of autism [2]; within 3 weeks after infusion", "value": "approximately 50 cups per day"}, {"measurement": "bowel movements", "setting": "symptoms of autism [2]; within 3 weeks after infusion, before: abnormal", "value": "Normal bowel movements"}, {"measurement": "excessive water consumption", "setting": "symptoms of autism [2]; within 3 weeks after infusion, before: approximately 50 cups per day", "value": "no change"}, {"measurement": "potty training", "setting": "symptoms of autism [2]; within 3 weeks after infusion, before: diapers only", "value": "Completely potty trained"}, {"measurement": "imitation of commands", "setting": "symptoms of autism [2]; within 3 weeks after infusion, before: did not imitate", "value": "Will imitate almost any multi-step"}, {"measurement": "\"spinning\" episodes", "setting": "symptoms of autism [2]; within 3 weeks after infusion, before: infrequent (1-2 times/week)", "value": "No spinning episodes"}, {"measurement": "eye contact", "setting": "symptoms of autism [2]; within 3 weeks after infusion, before: minimal eye contact", "value": "75 % of the time"}, {"measurement": "connections made between language and objects", "setting": "symptoms of autism [2]; within 3 weeks after infusion, before: no apparent connections", "value": "Many connections made between new"}, {"measurement": "flash cards", "setting": "symptoms of autism [2]; within 3 weeks after infusion, before: no flash cards", "value": "40-50 flash cards"}, {"measurement": "focus on requested tasks", "setting": "symptoms of autism [2]; within 3 weeks after infusion, before: no focus", "value": "Will sit and watch carefully"}, {"measurement": "interest in drawing", "setting": "symptoms of autism [2]; within 3 weeks after infusion, before: no interest", "value": "Wants to draw constantly"}, {"measurement": "response to request for gestures", "setting": "symptoms of autism [2]; within 3 weeks after infusion, before: no response", "value": "Responds to all kinds of things"}, {"measurement": "sentences", "setting": "symptoms of autism [2]; within 3 weeks after infusion, before: no sentences", "value": "Short sentences"}, {"measurement": "words", "setting": "symptoms of autism [2]; within 3 weeks after infusion, before: two words", "value": "100's of words"}, {"measurement": "sleeping problems", "setting": "symptoms of autism [2]; within 3 weeks after infusion, before: up numerous times each night", "value": "Has slept through almost every night"}, {"measurement": "interaction with videos", "setting": "symptoms of autism [2]; within 3 weeks after infusion, before: watch videos", "value": "gets \"involved\" interactively"}, {"measurement": "chronic abnormal bowel movements", "setting": "symptoms of autism [2]; within days after the administration, no change of diet", "value": "became normal"}, {"measurement": "eye contact", "setting": "symptoms of autism [2]; [4]", "value": "able to make normal eye contact"}, {"measurement": "language", "setting": "symptoms of autism [2]; [4]", "value": "language appeared for the first time in two years"}, {"measurement": "other behavioral and developmental problems", "setting": "symptoms of autism [2]; [4]", "value": "improved remarkably"}, {"measurement": "autistic behavioral symptoms when the daily dose is stopped", "setting": "symptoms of autism [3]; transdermal daily dose stopped", "value": "autistic behavioral symptoms return"}, {"measurement": "language", "setting": "symptoms of autism [3]; transdermal daily, within a period of about 6 months", "value": "progressed to spontaneous and conversational language"}, {"measurement": "perfusion of the right posterior parietal and right temporal lobes (blood flow in the brain)", "setting": "brain perfusion", "value": "improved; also recorded: increased"}]}
